Experimental data from patent US20060003988A1, “Compounds capable of inhibiting immunocyte-related allergic immune reactions” (priority 2002, published 2006).
Structures can show the parent of a compound that is named as a salt.

Legend:
[1] = in vivo; cited from earlier work
[2] = tested on: IL-4 production from peripheral blood T cells; assay: IL-4 production from peripheral blood T cells (ELISA); type: cell-based, human
Experimental: (§1) The antibody-coated plates and T cells were prepared similarly as in Example 1 except that the OKT3 concentration was 0.5 μg/ml. The cytokine production by T cells was analyzed in triplicate using 96-well flat-bottomed plates by the same method employed in the T cell proliferation analysis described above. After culturing for 24 hours, the culture supernatant was tested using ELISA kit (IL-2: Biosource International, Camarillo, Calif.; IFN-γ: R&D systems, Minneapolis, Minn.) to quantify IL-2 and IFN-γ.
(§2) Th2 type CD4 T cells play an important role in allergic diseases. […] This analysis was performed similarly as in Example 2 except that ELISA (IL-4: Biosource International, Camarillo, Calif.; IL-5: R&D systems, Minneapolis, Minn.) was used to quantify IL-4 and IL-5.

[3] = tested on: IFN-γ production from peripheral blood T cells; assay: IFN-γ production from peripheral blood T cells (ELISA); type: cell-based, human; settings: each costimulation condition; 24 hours; ebastine 0.1 μM to 10 μM, carebastine 1 μM to 100 μM
Experimental: (§3) In order to analyze whether or not H1 blockers have an inhibitory effect on cytokine production induced by the various costimulations described above, the present inventors measured Th1 type cytokines (IL-2, and IFN-γ) in the culture supernatant induced by the various costimulations described above.
as §1

PHA-stimulated T cells [4] = assay: Transendothelial migration of PHA-stimulated T cells through ECV304 monolayer; type: cell-based, human; settings: compound present during migration, eight hours
Experimental: Since fresh resting-stage T cells hardly migrate by permeating a monolayer of endothelial cells, these T cells were activated using PHA (10 μg/ml) prior to performing transendothelial migration analysis.
Specifically, the analysis of transendothelial migration was performed by slightly modifying a known method (Iwata S, Yamaguchi N, Munakata Y, Ikushima H, Lee J F, Hosono O, Schlossman S F, Morimoto C. “CD26/DPPIV differentially regulates the chemotaxis of T cells and monocytes toward RANTES. Possible mechanism for the switch from innate to acquired immune response.” Int Immunol. 11:417-426, 1999). Human endothelial cell strain ECV304 was obtained from the American Tissue Culture Collection (ATCC; Rockville, Md.) and cultured for 48 hours on Transwell cell culture inserts (Corning Costar, Cambridge, Mass.) with a pore size of 3.0 μm. The cells were loaded onto a 24-well plastic plate for cell culture (FALCON), and mixed with H1 blockers at various concentrations using Transwell assay medium (RPMI1640 medium, BSA 0.6%, Penicillin G/Streptomycin 1%, HEPES 50 mM). Two-hundred μl of PHA-stimulated T cells (1×10^7/ml) were then placed in the upper chamber and 600 μl of assay medium was placed in the lower chamber, and migration was performed for eight hours at 37° C. under 5% CO2. After recovery of the cells, the number of cells was counted for one minute by flow cytometry (FACSCalibur, Nippon Becton-Dickinson, Tokyo, Japan).

[5] = tested on: TNF-α production from peripheral blood T cells; assay: TNF-α production from peripheral blood T cells (ELISA); type: cell-based, human; settings: for effect on TNF-α production from T cells: each costimulation condition
Experimental: as §1
(§4) The present inventors analyzed the effects of H1 blockers on the production of inflammatory cytokines, such as IL-6 and TNF-α, from T cells due to the various costimulation pathways described above. This analysis was performed similarly as in Example 2 above except for the use of an ELISA kit for measuring IL-6 and TNF-α (R&D systems, Minneapolis, Minn.).

[6] = tested on: IL-6 production from macrophages; assay: IL-6 production from macrophages upon LPS stimulation (ELISA); type: cell-based, human
Source text: (§5) Specifically, in order to produce IL-6 and THF-α from macrophages, peripheral blood mononuclear cells were adhered to a plastic plate to isolate and recover macrophages.

[7] = tested on: TNF-α production from macrophages; assay: TNF-α production from macrophages upon LPS stimulation (ELISA); type: cell-based, human
Source text: as §5

[8] = tested on: histamine-induced contraction in trachea samples; settings: trachea samples excised from guinea pigs; read-out: IC50 of the effects on histamine-induced contraction; cited from earlier work
[9] = tested on: IL-2 production from peripheral blood T cells; assay: IL-2 production from peripheral blood T cells (ELISA); type: cell-based, human; settings: each costimulation condition; 24 hours; up to maximum concentration (10 μM ebastine, 100 μM carebastine)
Experimental: as §3, §1

[10] = tested on: IL-6 production from peripheral blood T cells; assay: IL-6 production from peripheral blood T cells (ELISA); type: cell-based, human; settings: for effect on IL-6 production from T cells: each costimulation condition
Experimental: as §1, §4

[11] = tested on: IL-5 production from peripheral blood T cells; assay: IL-5 production from peripheral blood T cells (ELISA); type: cell-based, human; settings: for effect on IL-5 production: each costimulation condition, concentration-dependent
Experimental: as §1, §2

[12] = dose increased to five times from that used for the treatment; cited from earlier work
PHA-stimulated T cells [13] = assay: Adhesion of PHA-stimulated T cells to endothelial cells (fluorescence microscopy); settings: 1.0 μM to 5.0 μM; six hours; dose-dependent
Source text: After six hours, the culture dish was washed three times with PBS.

[14] = molecular target: human recombinant H1 receptors (Homo sapiens, UniProt P35367); settings: read-out: IC50 of inhibiting ligand binding to H1 receptors; cited from earlier work
[15] = according to the Interview Form; cited from earlier work
H2 receptors [16] = molecular target: T1, H2 receptors (Homo sapiens, UniProt P25021); settings: read-out: IC50 in the inhibition of ligand binding to H2 receptors; cited from earlier work
T cells = assay: T cell proliferation (3H-thymidine incorporation) via different costimulation pathways; type: cell-based, human; settings: stimulation on CD3 combined with CD26, CD28 or PMA; all concentrations used
Experimental: The first pathway was PMA, the second pathway stimulation on CD28 that is one of the representative T cell costimulation molecules, and the third pathway stimulation on CD26 that is expressed on CD4^+ memory T cells. The simulation on CD3 was applied together with all of these stimulations. The stimulation on CD3, CD26, and CD28 was performed using monoclonal antibodies OKT3, 1F7 (Morimoto C et al., 1989, supra), and 4B10 (immi CD et al., 1991, supra), respectively. OKT3 was purchased from the American Tissue Culture Collection (ATCC, Rockville, Md.), while 4B10 and 1F7 were purified from mouse ascites of hybridomas established in the present inventors' laboratory (Gimmi C D et al., 1991, supra; Morimoto C et al., 1989, supra). […]
Phosphate-buffer saline (PBS) (100 μl) containing either one of the monoclonal antibodies, OKT3 (0.05 μg/ml), 1F7 (1 μg/ml), or 4B10 (2 μg/ml), was coated in triplicate according to a known method (Dang N H et al., 1990, supra) on flat-bottomed 96-well plates (Coster, Cambridge, Mass.), and the plates were then incubated overnight at 4° C. […] The cells were stimulated for eight hours with 1 μCi ^3H-thymidine (ICN Radiochemicals, Irvine, Calif.) per well, recovered on a glass fiber filter (Wallac, Turku, Finland) to quantify the incorporated radioactivity with a liquid scintillation counter (Wallac).

H2 receptors [17] = molecular target: T1, H2 receptors; settings: at maximum concentration; cited from earlier work
[18] = each costimulation condition, concentration-dependent

T1 sequence (P25021 whole entry): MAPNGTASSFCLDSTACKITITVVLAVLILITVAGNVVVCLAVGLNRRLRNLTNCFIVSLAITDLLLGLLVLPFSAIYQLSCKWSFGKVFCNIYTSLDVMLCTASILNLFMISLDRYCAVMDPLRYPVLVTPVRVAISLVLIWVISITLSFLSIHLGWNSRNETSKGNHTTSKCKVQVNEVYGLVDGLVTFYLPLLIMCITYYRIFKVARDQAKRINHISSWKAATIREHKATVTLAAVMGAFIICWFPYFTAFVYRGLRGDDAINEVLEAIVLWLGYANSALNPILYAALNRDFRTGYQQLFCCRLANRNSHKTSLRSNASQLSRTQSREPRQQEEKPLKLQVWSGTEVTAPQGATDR
human recombinant H1 receptors, sequence (P35367 whole entry): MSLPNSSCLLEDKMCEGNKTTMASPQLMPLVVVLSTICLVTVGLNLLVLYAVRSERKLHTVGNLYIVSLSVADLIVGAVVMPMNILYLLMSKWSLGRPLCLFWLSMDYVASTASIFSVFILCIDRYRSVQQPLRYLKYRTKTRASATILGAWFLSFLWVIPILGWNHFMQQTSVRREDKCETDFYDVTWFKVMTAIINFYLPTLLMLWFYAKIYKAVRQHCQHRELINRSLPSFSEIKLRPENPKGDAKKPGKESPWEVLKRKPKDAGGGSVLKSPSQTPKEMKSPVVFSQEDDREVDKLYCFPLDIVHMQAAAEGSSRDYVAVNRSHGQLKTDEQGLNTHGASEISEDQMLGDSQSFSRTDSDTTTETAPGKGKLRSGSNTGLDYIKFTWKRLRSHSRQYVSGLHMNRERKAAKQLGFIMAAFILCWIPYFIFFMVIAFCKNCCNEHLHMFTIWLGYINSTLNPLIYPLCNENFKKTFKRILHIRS

Compound	maximum blood concentration [1] [µM]	effect on IL-4 production [2, 18]	effect on IFN-γ production [3]	effect on T cell migration (PHA-stimulated T cells [4])	effect on TNF-α production from T cells [5]	effect on IL-6 production from macrophages ([6]; eight hours)	effect on TNF-α production from macrophages ([7]; eight hours)	IC50 [8] [nM]	effect on IL-2 production [9]	effect on IL-6 production from T cells [10]	effect on IL-5 production [11]	IC50 (H2 receptors [16]) [nM]	also measured
CC(C)(C(=O)O)c1ccc(C(=O)CCCN2CCC(OC(c3ccccc3)c3ccccc3)CC2)cc1 [carebastine, 4-[4-[4-(di-phenylmethoxy)-1-piperidinyl]-1-oxobutyl]-α, α-di-methylbenzeneacetic acid]	0.1	inhibited	did not have a clear effect	suppressed	inhibited	suppressed	suppressed	120	did not inhibit	inhibited	inhibited	–	–
O=C(O)COCCN1CCN(C(c2ccccc2)c2ccc(Cl)cc2)CC1 (centres unmarked) [cetirizine hydrochloride]	–	did not have a clear effect	did not have a clear effect	–	did not have a clear effect	no inhibition	no inhibition	–	did not have a clear effect	did not have a clear effect	did not have a clear effect	–	–
CC(C)(C)c1ccc(C(=O)CCCN2CCC(OC(c3ccccc3)c3ccccc3)CC2)cc1 [ebastine, 4-diphenylmethoxy-1[3-(4-terbutyl-benzoyl)-propyl]piperidine]	–	inhibited	did not have a clear effect	–	inhibited	suppressed	suppressed	–	did not inhibit	inhibited	inhibited	–	effect on IL-4 production ([2]; 10 μM): nearly completely inhibited; suppression of IL-4 production ([2]; 20 μM, all donors): 100%; suppression of TNF-α production from T cells ([5]; 10 μM to 20 μM): 100%; effect on QT interval [12]: not to affect; suppression of IL-6 production from macrophages ([6]; 1 μM): ≥ 50%; effect on IL-6 production from macrophages ([6]; 10 μM): nearly completely inhibited; suppression of TNF-α production from macrophages ([7]; 1 μM): ≥ 50%; effect on TNF-α production from macrophages ([7]; 10 μM): nearly completely inhibited; suppression of IL-6 production from T cells ([10]; 10 μM to 20 μM): 100%; adhesion of PHA-stimulated T cells to endothelial cells (PHA-stimulated T cells [13]): suppress; suppression of IL-5 production ([11]; 20 μM, all donors): 100%
NC1=NCC2c3ccccc3Cc3ccccc3N12 (centres unmarked) [epinastine hydrochloride, 3-amino-9,13b-dihydro-1H-dibenz(c,f)imidazol(1,5-a)azepine hydro-chloride]	0.1	inhibited	suppressed	did not have a clear effect	no clear effect	no inhibition	no inhibition	–	suppressed	no clear effect	inhibited	640 ± 62	IC50 [14]: 1.1 ± 0.16 nM; efficacy in the improvement of bronchial asthma to a medium degree or greater [15]: 47.0%
CN1CCC(=C2c3ccccc3CC(=O)c3sccc32)CC1 [ketotifen fumarate]	0.01	did not have a clear effect	did not have a clear effect	did not have a clear effect	did not have a clear effect	no inhibition	no inhibition	2.5	did not have a clear effect	did not have a clear effect	did not have a clear effect	2200 ± 450	effect on T cell proliferation (T cells): hardly inhibited
CC(C)(C)c1ccc(C(O)CCCN2CCC(C(O)(c3ccccc3)c3ccccc3)CC2)cc1 (centres unmarked) [terfenadine]	–	–	–	–	–	–	–	–	–	–	–	–	inhibition rate to [3H]-tiotidine (H2 receptors [17]): 29%
